From article PMC9030254, “Target Hopping from Protein Kinases to PXR: Identification of Small-Molecule Protein Kinase Inhibitors as Selective Modulators of Pregnane X Receptor from TüKIC Library” (Cells, 2022) come the findings set out here.

Common to all, as to type: cell-based
One series has as its target T1, PXR LBD (Homo sapiens, UniProt O75469).
T1 construct: GAL4-DBD/PXR(132–188); VP16-AD/PXR(189–434); expressed in transfected cells; host or cells: HepG2
T1 sequence (O75469 132-188): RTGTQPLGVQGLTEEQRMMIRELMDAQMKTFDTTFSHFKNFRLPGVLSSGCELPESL
T1 sequence (O75469 189-434): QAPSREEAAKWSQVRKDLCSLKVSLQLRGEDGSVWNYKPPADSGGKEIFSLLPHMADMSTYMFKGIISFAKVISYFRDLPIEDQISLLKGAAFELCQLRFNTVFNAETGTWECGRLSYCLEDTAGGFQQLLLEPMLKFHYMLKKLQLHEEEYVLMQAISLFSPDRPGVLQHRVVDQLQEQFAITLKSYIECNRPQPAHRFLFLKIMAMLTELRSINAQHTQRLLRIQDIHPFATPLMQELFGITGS
Kind of series: Mammalian two-hybrid PXR LBD assembly assay. Conditions: HepG2, 10 µM, 24 h. The procedure:
For the mammalian two-hybrid PXR ligand-binding domain assembly assay, 0.24 µg pGL4-G5, 0.01 µg pMetLuc2control, and 0.03 µg each of expression plasmids encoding GAL4-DBD/PXR(132–188) and VP16-AD/PXR(189–434) fusion proteins were used per well. Otherwise, batch transfection was performed as above with HepG2 cells.
Figure 5 PXR binding of phenylaminobenzosuberones is indicated by cellular PXR LBD assembly assay and inhibition of LBP-filled PXR mutant (A) Novel compounds induce PXR LBD assembly. […] (B) Effects of novel compounds on LBP-filled PXR mutant. HepG2 cells were transiently transfected with CYP3A4 reporter and expression plasmid encoding PXR(S208W/S247W/C284W) and treated as described above. […] Statistically significant differences are illustrated with asterisks. ** p ˂ 0.01, compared to respective treatments with DMSO analyzed by repeated measures one-way ANOVA with Dunnett’s multiple comparisons test.

The target of a further series is T2, CAR3 (Homo sapiens, UniProt Q14994, DEL233-236).
T2 construct: expressed in transfected cells; host or cells: HepG2
T2 sequence (Q14994 with tags, fused parts or gaps isoform Q14994-8 DEL233-236): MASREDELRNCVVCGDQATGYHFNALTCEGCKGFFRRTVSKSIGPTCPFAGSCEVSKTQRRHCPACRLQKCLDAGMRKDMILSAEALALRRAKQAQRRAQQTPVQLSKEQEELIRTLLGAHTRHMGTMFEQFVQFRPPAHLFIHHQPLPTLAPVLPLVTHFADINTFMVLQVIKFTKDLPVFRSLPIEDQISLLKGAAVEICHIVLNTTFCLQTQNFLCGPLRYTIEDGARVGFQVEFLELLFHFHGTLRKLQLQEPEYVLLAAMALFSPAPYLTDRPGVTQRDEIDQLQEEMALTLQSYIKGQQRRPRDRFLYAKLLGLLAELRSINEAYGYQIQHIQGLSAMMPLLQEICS
T2 sequence (P19793 1-462 partner): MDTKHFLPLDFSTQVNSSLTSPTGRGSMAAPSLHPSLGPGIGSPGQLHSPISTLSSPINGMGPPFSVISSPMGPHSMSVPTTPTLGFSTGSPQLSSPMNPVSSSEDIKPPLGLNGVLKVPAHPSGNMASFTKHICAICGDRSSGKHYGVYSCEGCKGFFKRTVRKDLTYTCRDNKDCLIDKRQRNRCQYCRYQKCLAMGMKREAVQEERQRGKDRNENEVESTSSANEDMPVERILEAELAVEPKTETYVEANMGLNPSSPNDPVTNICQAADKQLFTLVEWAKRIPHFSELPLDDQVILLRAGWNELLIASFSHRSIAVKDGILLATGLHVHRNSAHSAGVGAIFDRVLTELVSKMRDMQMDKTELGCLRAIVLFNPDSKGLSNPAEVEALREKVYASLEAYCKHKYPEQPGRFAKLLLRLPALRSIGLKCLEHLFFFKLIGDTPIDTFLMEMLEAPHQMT
Kind of series: Nuclear receptor selectivity reporter assay, CAR3. The note with it: for impairment of ligand-induced activation of CAR3 by CITCO: HepG2, 10 µM compound + 10 µM CITCO. The procedure: For testing nuclear receptor selectivity and LBP-filled PXR mutant activation, transient batch transfection was conducted as above, but with HepG2 cells and the following plasmids, with amounts per well of 0.23–0.27 µg pGL4-CYP3A4(-7830Δ7208-364) or pGL3(DR3)3Tk (as reporter for VDR), 0.01 µg pMetLuc2control, and 0.03 µg either CAR1, CAR3, VDR, or PXR(S208W/S247W/C284W) expression plasmids. In addition, 0.03 µg RXRα expression plasmid was added to CAR3 transfections. Metridia luciferase activity was measured from 10 µL of medium supernatant after adding 100 µL Renilla luciferase assay solution.
Figure 6 Selectivity of novel PXR ligands within the NR1I group of nuclear receptors. HepG2 cells were transiently transfected with CYP3A4 reporter and expression plasmids encoding (A) CAR1 or (B) CAR3, or (C) direct repeat (DR3)3 reporter and expression plasmid encoding VDR. Cells were treated with 0.2% DMSO or 10 µM chemicals as indicated. 1α,25(OH)2D3 was used at 1 µM.

The target of series [1] is T3, PXR interaction with coactivator SRC1 (Homo sapiens, UniProt O75469).
T3 construct: VP16-PXR LBD(108–434); expressed in transfected cells; host or cells: HepG2
T3 sequence (O75469 108-434): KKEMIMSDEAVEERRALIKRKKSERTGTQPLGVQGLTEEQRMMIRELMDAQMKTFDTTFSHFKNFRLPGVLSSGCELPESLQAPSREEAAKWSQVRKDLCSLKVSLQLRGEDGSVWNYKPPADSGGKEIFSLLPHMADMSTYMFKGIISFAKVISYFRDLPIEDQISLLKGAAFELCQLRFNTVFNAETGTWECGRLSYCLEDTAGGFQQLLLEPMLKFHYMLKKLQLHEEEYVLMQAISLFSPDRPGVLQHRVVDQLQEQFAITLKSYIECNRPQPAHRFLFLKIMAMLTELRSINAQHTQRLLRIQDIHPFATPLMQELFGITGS
Kind of series: Mammalian two-hybrid coactivator interaction assay. Conditions: for effect on rifampicin-dependent recruitment of SRC1 by PXR: HepG2, 10 µM compound + 10 µM rifampicin; for induction of interaction of PXR with coactivator SRC1: HepG2, 10 µM, alone. How it is done:
In mammalian two-hybrid corepressor/coactivator interaction assays, per well 0.24 µg pGL4-G5, 0.01 µg pGL4.75[hRluc/CMV], 0.03 µg expression plasmid encoding VP16-AD/PXR LBD fusion, and 0.03 µg expression plasmids encoding GAL4-DBD/SRC1-RID or GAL4-DBD/SMRT-RID fusions, respectively, were used. For the SMRT corepressor interaction assay, additionally 0.015 µg of RXRα expression plasmid was included.

Regarding `Cc1ccc(NC(=O)Cc2ccccc2)cc1Nc1ccc2c(c1)CCCCC2=O` [Compound 73], the “assembly of the PXR LBD” value at PXR LBD was “induced the assembly of the PXR LBD”. Further, the “activation of CAR3 on their own” value at CAR3 (HepG2, 10 µM) was “Neither CAR3 nor VDR were activated”. On CAR3, the “impairment of ligand-induced activation of CAR3 by CITCO” value is listed as 46%. In series [1], the “effect on rifampicin-dependent recruitment of SRC1 by PXR” value is listed as “abrogated the rifampicin-dependent recruitment of SRC1 by PXR” and the “induction of interaction of PXR with coactivator SRC1” value (from here on “induction of interaction of PXR”) is “did not induce any interaction of PXR with coactivator SRC1”.

Turning to `O=C(Nc1ccc(F)c(Nc2ccc3c(c2)CCCCC3=O)c1)c1cccc(F)c1` [Compound 109], the “assembly of the PXR LBD” value at PXR LBD was “induced the assembly of the PXR LBD”. Moreover, the “activation of CAR3, % of the effect of CITCO” value at CAR3 (HepG2, 10 µM) stood at 12%. In addition, the “induction of interaction of PXR” value in series [1] is “interaction with SRC1 was induced”.

Turning to `O=C(Cc1ccccc1)Nc1ccc(F)c(Nc2ccc3c(c2)CCCCC3=O)c1` [Compound 100], the “assembly of the PXR LBD” value at PXR LBD is on record as “induced the assembly of the PXR LBD”. The “activation of CAR3 on their own” value on CAR3 (HepG2, 10 µM) is reported as “Neither CAR3 nor VDR were activated”. At CAR3, the “impairment of ligand-induced activation of CAR3 by CITCO” value is reported as “no respective effects”. Further, in series [1], the “effect on rifampicin-dependent recruitment of SRC1 by PXR” value was “abrogated the rifampicin-dependent recruitment of SRC1 by PXR” and the “induction of interaction of PXR” value is recorded as “did not induce any interaction of PXR with coactivator SRC1”.
